Assay results reported in EP2608671B1, “COMPOUNDS FOR TREATMENT OF CANCER” (Gtx, Inc., priority 2010, dated 2012).
Structures can show the parent of a compound that is named as a salt. Where two headings read alike, the source gives them in different places.

Assays:
PPC-1 = assay: cells; details: Homo sapiens
WM-164 = assay: SRB cell growth inhibition (cytotoxicity) assay; assay type: cell-based, human; details: Homo sapiens
PC-3 = assay: cells; details: Homo sapiens
Description: (§1) The only compounds which belong to the invention are the ones falling under the scope of formula (XI).
Cells were stained with SRB solution.
Cells. […] Cells between the third and fifth passages were used for experiments.
Cell growth inhibition studies. […] Cells were stained with sulphorhodamine B (SRB) solution.

DU 145 = assay: cells; details: Homo sapiens
[1] = tested on: melanoma cell lines (A375, WM-164, B16-F1) and prostate cancer cell lines (LNCaP, DU 145, PC-3, PPC-1); assay: SRB cytotoxicity, melanoma and prostate cell panel (averages); assay type: cell-based; details: for antiproliferative activity: summary of Table 3
Description: as §1

LNCaP = assay: cells; details: Homo sapiens
B16-F1 = assay: SRB cell growth inhibition (cytotoxicity) assay; assay type: cell-based, mouse
Description: as §1

A375 = assay: SRB cell growth inhibition (cytotoxicity) assay; assay type: cell-based, human
[2] = rat
[3] = PPC-1, 96 h, read-out: IC50 ± SEM (nM), PPC-1
[4] = WM164 melanoma cells, 48 h, SRB, read-out: IC50 ± SEM (nM) WM164
[5] = PC-3, 96 h, read-out: IC50 ± SEM (nM), PC-3
[6] = DU-145, 96 h, read-out: IC50 ± SEM (nM) Du 145
[7] = Prostate cell, read-out: IC50 (average over cell lines)
[8] = 96 h, read-out: IC50 ± SEM (nM), LNCaP
[9] = Mus musculus; B16-F1 melanoma cells, 48 h, SRB; read-out: IC50 ± SEM (nM) B16-F1
[10] = Homo sapiens, A-375; A375 melanoma cells, 48 h, SRB; read-out: IC50 ± SEM (nM) A375
[11] = IV, […] (1h, 2r), 5 mg/kg (5Ha, 5Hc)
[12] = DU-145, 96 h, read-out: IC50 ± SEM (nM), DU 145
[13] = Prostate cell, Table 2, read-out: IC50 range over tested melanoma and prostate cell lines
[14] = Mus musculus, B16-F1; read-out: IC50 ± SEM (nM), B16-F1
[15] = Homo sapiens, A-375, 96 h; read-out: IC50 ± SEM (nM), A375
[16] = WM164, 48 h, read-out: IC50 ± SEM (nM) WM164
[17] = ABI compounds, Tables 11-13, read-out: IC50 (average over cell lines)
[18] = Mus musculus, B16-F1, 48 h, read-out: IC50 ± SEM (nM) B16-F1

Row | SMILES | IC50 (PPC-1; [3]) | IC50 (WM-164; [4]) | IC50 (PC-3; [5]) | IC50 (DU 145; [6]) | IC50 (LNCaP; [8]) | IC50 (B16-F1; [9]) | IC50 (A375; [10]) | other results
1 | O=C(c1ccc(F)cc1)c1c[nH]c(-c2ccccc2C(F)(F)F)n1 [12ib, (4-fluorophenyl)(2-(2-(trifluoromethyl)phenyl)-1 H-imidazol-4-yl)methanone] | > 10000 nM | > 10000 nM | > 10000 nM | > 10000 nM | > 10000 nM | > 10000 nM | > 10000 nM | IC50 [1, 7]: > 10000 nM
2 | COc1cc(C(=O)c2csc(Nc3ccc(F)cc3)n2)cc(OC)c1OC.Cl [5Hc, (2-(p-Fluorophenylamino)thiazol-4-yl)(3,4,5-trimethoxyphenyl)methanone hydrochloride salt] | – | – | – | – | – | – | – | CL (mL/min/kg), systemic clearance [2, 11]: 13 ± 2 mL/min/kg; Vss (L/kg), volume of distribution [2, 11]: 1.4 ± 0.2 L/kg; increased exposure (AUC) by the oral route as compared to 1h ([2]; in vivo, po): more than 4.3 fold; F (%), percent oral bioavailability ([2]; Table 4, 10 mg/kg): 21%
3 | COc1cc(-c2nc(C(=O)c3ccc(F)cc3)c[nH]2)cc(OC)c1OC [12eb, (4-fluorophenyl)(2-(3,4,5-trimethoxyphenyl)-1H-imidazol-4-yl)methanone] | > 10000 nM | – | > 10000 nM | > 10000 nM | > 10000 nM | – | – | IC50 [1, 7]: > 10000 nM
4 | Cc1ccc(-c2nc(C(=O)c3ccc(F)cc3)c[nH]2)cc1 [12db-HCl, (4-fluorophenyl)(2-(p-tolyl)-1H-imidazol-4-yl)methanone HCl salt] | – | – | – | – | – | – | – | IC50 ([1]; ABI compounds, Tables 11-13, HCl salt, read-out: IC50 (average over cell lines)): 172 nM; IC50 (A375; Homo sapiens, A-375, 48 h, read-out: IC50 ± SEM (nM) A375, A375 melanoma cells, 48 h, SRB): 108 ± 11 nM
5 | O=C(c1ccc2[nH]ccc2c1)c1csc(-c2cc3ccccc3[nH]2)n1 [compound 21, (2-(1H-indol-2-yl)thiazol-4-yl)(1H-indol-5-yl)methanone] | – | – | – | – | – | – | – | IC50 (PPC-1; PPC-1, read-out: IC50 (nM), PPC-1): 216 nM; IC50 (WM-164; WM164, Table 6A, read-out: IC50 (nM), WM164): 408 nM; IC50 (PC-3; PC-3, read-out: IC50 (nM), PC-3): 403 nM; IC50 (DU 145; DU-145, read-out: IC50 (nM), DU 145): 435 nM; IC50 ([1]; Prostate cell, summary of Tables 2, 3, 21, read-out: IC50 range over tested melanoma and prostate cell lines): 76 to 116 nM; IC50 (LNCaP; read-out: IC50 (nM), LNCaP): 314 nM; IC50 (B16-F1; Mus musculus, B16-F1; Table 6A; read-out: IC50 (nM), B16-F1): 924 nM; IC50 (A375; Homo sapiens, A-375; Table 6A; read-out: IC50 (nM), A375): 383 nM
6 | COc1cc(C(=O)c2c[nH]c(-c3cc(OC)c(OC)c(OC)c3)n2)cc(OC)c1OC [12ea, (3,4,5-trimethoxyphenyl)(2-(3,4,5-trimethoxyphenyl)-1H-imidazol-4-yl)methanone] | > 10000 nM | – | > 10000 nM | > 10000 nM | > 10000 nM | – | – | IC50 [1, 7]: > 10000 nM
7 | CNCc1ccc(-c2nc(C(=O)c3cc(OC)c(OC)c(OC)c3)cs2)cc1.Cl [2s, (2-(4-((Methylamino)methyl)phenyl)thiazol-4-yl)(3,4,5-trimethoxyphenyl)methanone hydrochloride] | ~1000 nM | – | > 10000 nM | – | 114 ± 80 nM | – | – | IC50 (DU 145; [12]): ~10000 nM; antiproliferative activity [1]: abrogated activity; IC50 (B16-F1; Mus musculus, B16-F1, read-out: IC50 ± SEM (nM), B16-F1): > 10000 nM; IC50 (A375; Homo sapiens, A-375, 96 h, read-out: IC50 ± SEM (nM), A375): > 10000 nM
8 | O=C(c1ccc(F)cc1)c1cn(S(=O)(=O)c2ccccc2)c(-c2ccc(OCc3ccccc3)cc2)n1 [11jb, (2-(4-(benzyloxy)phenyl)-1-(phenylsulfonyl)-1H-imidazol-4-yl)(4-fluorophenyl)methanone] | 38 ± 0.2 nM | 48 ± 5 nM | 75 ± 0.5 nM | 58 ± 1 nM | 35 ± 1 nM | 110 ± 15 nM | 64 ± 7 nM | IC50 ([1]; Prostate cell, ABI compounds, Tables 11-13, read-out: IC50 (average over cell lines)): 61 nM
9 | COc1cc(/C(=N/O)c2csc(-c3ccccc3)n2)cc(OC)c1OC [2e-cis, (Z)-(2-Phenylthiazol-4-yl)(3,4,5-trimethoxyphenyl)methanone oxime] | 160 nM | – | 120 nM | – | 189 nM | – | – | IC50 (DU 145; [12]): 102 nM; IC50 [1, 13]: 100 to 300 nM; IC50 (B16-F1; [14]): 300 ± 100 nM; IC50 (A375; [15]): 200 ± 100 nM
10 | COc1cc(C(=O)c2csc(-c3ccc(CN(C)C)cc3)n2)cc(OC)c1OC.Cl [2u, (2-(4-((Dimethylamino)methyl)phenyl)thiazol-4-yl)(3,4,5-trimethoxyphenyl)methanone hydrochloride] | > 10000 nM | – | > 10000 nM | – | 1020 ± 200 nM | – | – | IC50 (DU 145; [12]): > 10000 nM; antiproliferative activity [1]: abrogated activity; IC50 (B16-F1; [14]): > 10000 nM; IC50 (A375; [15]): > 10000 nM
11 | COc1cc(C(=NN)c2csc(-c3ccccc3)n2)cc(OC)c1OC (mixture of isomers) [2d] | – | – | – | – | – | – | – | IC50 ([1]; Table 2, read-out: IC50 range over tested melanoma and prostate cell lines): ~1000 nM
12 | COc1ccc(-c2nc(C(=O)c3cc(OC)c(OC)c(OC)c3)c[nH]2)cc1OC [12ha, (2-(3,4-dimethoxyphenyl)-1H-imidazol-4-yl)(3,4,5-trimethoxyphenyl)methanone] | – | – | – | – | – | – | – | IC50 (WM-164; [16]): 191 ± 18 nM; IC50 [1, 17]: 330 nM; IC50 (B16-F1; [18]): 1400 ± 200 nM
13 | COc1cc(/C(=N\O)c2csc(-c3ccccc3)n2)cc(OC)c1OC [2e-trans, (E)-(2-Phenylthiazol-4-yl)(3,4,5-trimethoxyphenyl)methanone oxime] | > 10000 nM | – | > 10000 nM | – | > 10000 nM | – | – | IC50 (DU 145; [12]): > 10000 nM; IC50 [1, 13]: > 10000 nM; IC50 (B16-F1; [14]): 11400 ± 2100 nM; IC50 (A375; [15]): 7800 ± 1200 nM
14 | COc1cc(C(=O)c2cn(C)c(-c3ccc(C)cc3)n2)cc(OC)c1OC [12dab, (1-methyl-2-(p-tolyl)-1H-imidazol-4-yl)(3,4,5-trimethoxyphenyl)methanone] | 28 nM | – | 46 nM | 36 nM | 32 nM | – | – | IC50 (WM-164; [16]): 40 nM; IC50 (B16-F1; [18]): 134 nM; IC50 (A375; Homo sapiens, A-375, 48 h, read-out: IC50 ± SEM (nM) A375): 32 nM
15 | COc1cc(C(=O)c2cn(S(=O)(=O)c3ccccc3)c(-c3cc(OC)c(OC)c(OC)c3)n2)cc(OC)c1OC [11ea, (1-(phenylsulfonyl)-2-(3,4,5-trimethoxyphenyl)-1H-imidazol-4-yl)(3,4,5-trimethoxyphenyl)methanone] | > 10000 nM | > 10000 nM | > 10000 nM | > 10000 nM | > 10000 nM | > 10000 nM | > 10000 nM | –
16 | COc1ccc(C(=O)c2cn(S(=O)(=O)c3ccccc3)c(-c3ccccc3)n2)cc1 [11ab, (4-methoxyphenyl)(2-phenyl-1-(phenylsulfonyl)-1H-imidazol-4-yl)methanone] | > 10000 nM | > 10000 nM | > 10000 nM | > 10000 nM | > 10000 nM | > 10000 nM | > 10000 nM | –
17 | O=C(c1cc(O)c(O)c(O)c1)c1c[nH]c(-c2ccc(Cl)cc2)n1 [13fa, (2-(4-chlorophenyl)-1H-imidazol-4-yl)(3,4,5-trihydroxyphenyl)methanone] | > 10000 nM | – | 10000 nM | 10000 nM | 10000 nM | – | – | IC50 [1, 7]: 3890 nM
18 | COc1ccc(-c2nc(C(=O)c3ccc(F)cc3)cn2S(=O)(=O)c2ccccc2)cc1OC [11hb, (2-(3,4-dimethoxyphenyl)-1-(phenylsulfonyl)-1H-imidazol-4-yl)(4-fluorophenyl)methanone] | 1440 ± 49 nM | 1400 ± 30 nM | 10000 nM | 3310 nM | 1920 ± 77 nM | 2000 ± 400 nM | 960 ± 59 nM | –
19 | COc1cc(C(=O)c2c[nH]c(-c3ccccc3)n2)cc(OC)c1OC [12aa, (2-phenyl-1H-imidazol-4-yl)(3,4,5-trimethoxyphenyl)methanone] | – | – | – | – | – | – | – | IC50 (PPC-1; PPC-1, 96 h, read-out: IC50 (nM), PPC-1): 133 nM; IC50 (WM-164; WM164, 48 h, read-out: IC50 (nM), WM164): 10 nM; IC50 (PC-3; PC-3, 96 h, read-out: IC50 (nM), PC-3): 288 nM; IC50 (DU 145; DU-145, 96 h, read-out: IC50 (nM), Du 145): 196 nM; IC50 [1, 17]: 160 nM; IC50 (LNCaP; 96 h, read-out: IC50 (nM), LNCaP): 152 nM; IC50 (B16-F1; Mus musculus, B16-F1, 48 h, read-out: IC50 (nM), B16-F1): 120 nM; IC50 (A375; Homo sapiens, A-375, 48 h, read-out: IC50 (nM), A375): 160 nM
20 | COc1cccc(C(=O)c2cn(S(=O)(=O)c3ccccc3)c(-c3ccccc3)n2)c1 [11ac, (3-methoxyphenyl)(2-phenyl-1-(phenylsulfonyl)-1H-imidazol-4-yl)methanone] | > 10000 nM | > 10000 nM | > 10000 nM | > 10000 nM | > 10000 nM | > 10000 nM | > 10000 nM | –
